Test results taken from US11696914B1 (priority 2019, dated 2023).
Several values for one entry are separate records, joined by “and”; a condition that tells them apart may be missing. Equal values may be shown once. Read-outs that look alike come from different tables or passages of the source.

How the values were obtained:
[1] = tested on: Vesicular Stomatitis Virus (VSV) pseudotyped with EBOV glycoprotein; assay: microbe, parasite or virus in culture; assay type: cell-based, Ebola virus; conditions: HeLa, read-out: IC50, inhibition of EBOV-VSV pseudovirus entry
[2] = tested on: Marburg virus (MARV), Musoke strain; assay: organism not typed; assay type: cell-based; conditions: HeLa; n=6; read-out: IC50 ± SEM versus MARV Musoke strain
[3] = tested on: Ebola virus/H.sapiens-tc/COD/1995/Kikwit-9510621 (EBOV/Kik); assay: microbe, parasite or virus in culture; assay type: cell-based; conditions: Zaire ebolavirus, HeLa
[4] = tested on: Ebola virus/H.sapiens-tc/GIN/2014/Makona-005 (EBOV/Mak); assay: microbe, parasite or virus in culture; assay type: cell-based; conditions: Zaire ebolavirus, HeLa
[5] = tested on: Marburg virus/H.sapiens-tc/KEN/1980/Mt. Elgon-Musoke (MARV/Mus); assay: organism not typed; assay type: cell-based; conditions: HeLa
Nipah virus = assay: microbe, parasite or virus in culture; assay type: cell-based; conditions: Henipavirus nipahense, read-out: IC50 against Nipah virus
Herpes Simplex Virus 1 = assay: microbe, parasite or virus in culture; assay type: cell-based; conditions: Human alphaherpesvirus 1
Chikungunya virus = assay: microbe, parasite or virus in culture; assay type: cell-based; conditions: Vero 76
Ebola virus = assay: microbe, parasite or virus in culture; assay type: cell-based; conditions: Zaire ebolavirus, Vero 76
Influenza A virus H1N1 = assay: microbe, parasite or virus in culture; assay type: cell-based; conditions: H1N1, MDCK
MERS coronavirus = assay: microbe, parasite or virus in culture; assay type: cell-based; conditions: Middle East respiratory syndrome-related coronavirus, Vero 76
Poliovirus 3 = assay: microbe, parasite or virus in culture; assay type: cell-based; conditions: Enterovirus C, Vero 76
[6] = tested on: Respiratory synactial virus; assay: organism not typed; assay type: cell-based; conditions: MA104
Rift Valley fever virus = assay: microbe, parasite or virus in culture; assay type: cell-based; conditions: Vero 76
Tacaribe virus = assay: microbe, parasite or virus in culture; assay type: cell-based; conditions: Mammarenavirus tacaribeense, Vero
[7] = tested on: Venezuelian equine encephalitis virus; assay: microbe, parasite or virus in culture; assay type: cell-based; conditions: Venezuelan equine encephalitis virus, Vero 76
West Nile virus = assay: microbe, parasite or virus in culture; assay type: cell-based; conditions: Vero 76
Yellow Fever virus = assay: microbe, parasite or virus in culture; assay type: cell-based; conditions: Vero 76
Zika virus [8] = assay: microbe, parasite or virus in culture; assay type: cell-based; conditions: Vero 76
Zika virus [9] = assay: microbe, parasite or virus in culture; assay type: cell-based; conditions: Huh-7
Norovirus = assay: microbe, parasite or virus in culture; assay type: cell-based; conditions: HG23
Murine norovirus = assay: microbe, parasite or virus in culture; assay type: cell-based; conditions: Norwalk virus, RAW267.4
Human cytomegalovirus = assay: microbe, parasite or virus in culture; assay type: cell-based; conditions: Human betaherpesvirus 5
Hepatitis C virus = assay: microbe, parasite or virus in culture; assay type: cell-based; conditions: Huh-7
SARS-CoV-2 = assay: microbe, parasite or virus in culture; assay type: cell-based
[10] = tested on: murine hepatitis virus (MHV); assay: microbe, parasite or virus in culture; assay type: cell-based; conditions: Murine coronavirus, read-out: IC50 versus murine hepatitis virus (MHV)
HeLa cells = conditions: human
[11] = mouse, microsomes
[12] = guinea pig, microsomes
[13] = human, microsomes
[14] = guinea pig, pH 7.4
[15] = human, microsomes, 1 h, pH 7.4
Hartley guinea pigs = conditions: both, guinea pig, in vivo
[16] = male, Hartley, guinea pig, in vivo
Vero = conditions: African green monkey
HepG2 2.2.15 = conditions: human
in vitro [17] = conditions: dog
in vitro [18] = conditions: African green monkey
in vitro [19] = conditions: human
in vitro [20] = conditions: mouse
[21] = mouse, microsomes; cited from earlier work

SMILES: COc1ccc2nc3cc(Cl)ccc3c(Nc3cc(CN4CCCC4)c(O)c(CN4CCCC4)c3)c2n1 [Pyronaridine, 4-[(7-Chloro-2-methoxybenzo[b][1,5]naph-thyridin-10-yl)amino]-2,6-bis(1-pyrrolidinylmethyl)phenol phosphate (1:4)]
- IC50 [1]: 2.07 µM
- IC50 [2]: 1.08 ± 0.197 µM
- IC50 [3]: 1.3 ± 0.42 µM
- IC50 ([3]; read-out: IC50 range against three strains of EBOV): 0.82 to 1.3 µM
- IC50 [4]: 0.82 ± 0.19 µM
- IC50 [5]: 1.01 ± 0.11 µM
- IC50 (Nipah virus): 0.064 µM
- EC50 (Herpes Simplex Virus 1): > 6 µM
- EC90 (Herpes Simplex Virus 1): > 6 µM
- EC50 (Chikungunya virus): 3.2 µM
- EC50 (Ebola virus): > 1.3 µM
- EC50 (Influenza A virus H1N1): 3.2 µM
- EC50 (MERS coronavirus): 3.2 µM
- EC50 (Poliovirus 3): 3.2 µM
- EC50 [6]: > 7.5 µM
- EC50 (Rift Valley fever virus): 3.2 µM
- EC50 (Tacaribe virus): > 3.2 µM
- EC50 [7]: 1.8 µM
- EC50 (West Nile virus): > 24 µM
- EC50 (Yellow Fever virus): 3.2 µM
- EC50 (Zika virus [8]): 3.2 µM
- EC50 (Zika virus [9]): 3.2 µM
- EC50 (Norovirus): 3.5 µM
- EC90 (Norovirus): 9.7 µM
- EC50 (Murine norovirus): > 40 µM
- EC90 (Murine norovirus): > 40 µM
- EC50 (Human cytomegalovirus): > 1.2 µM
- EC90 (Human cytomegalovirus): > 1.2 µM
- EC50 (Hepatitis C virus): 0.78 µM
- EC90 (Hepatitis C virus): 1.71 µM
- IC50 (SARS-CoV-2; Severe acute respiratory syndrome coronavirus 2, A549-ACE2, read-out: IC50 against SARS-CoV-2): < 0.2 µM
- IC50 (SARS-CoV-2; read-out: IC50 against SARS-CoV-2): ~0.198 µM and 0.198 µM
- IC50 [10]: 2.75 µM
- CC50 (HeLa cells): 4.11 ± 0.5 µM
- Clint [11]: <7.4
- Dextromethorphan: compound, t1/2 normalized to dextromethorphan control [11]: >11.5
- t1/2 [11]: >3.1 h
- Clint [12]: 21.0
- Dextromethorphan: compound, t1/2 normalized to dextromethorphan control [12]: 23.4
- t1/2 [12]: 1.1 h
- Clint [13]: 11.4
- Dextromethorphan: compound, t1/2 normalized to dextromethorphan control [13]: 6.2
- t1/2 [13]: 2.037 h
- Relative Peak Area/Abundance GPLM [14]: 75.9%
- Relative Peak Area/Abundance HLM [15]: 85.9%
- guinea pigs found dead on days 5 and 6 (Hartley guinea pigs): 2 of 6
- guinea pigs found dead within 30 mins post injection (Hartley guinea pigs): 4 of 6
- guinea pigs having any abnormal clinical observations (Hartley guinea pigs): 1 of 6
- maximum tolerated dose (MTD), single dose (Hartley guinea pigs; ip): 125 mg/kg
- maximum tolerated dose (MTD), single dose (Hartley guinea pigs; po): > 600 mg/kg
- guinea pigs found dead on days 14 and 17 post dose ([16]; ip): 2 of 3
- measurable plasma levels through ([16]; ip): 168 h
- AUCinf Mean ([16]; ip, 125 mg/kg): 17,430 hr * ng/ml
- AUClast Mean ([16]; ip, 125 mg/kg): 16,565 hr * ng/ml
- Cmax Mean ([16]; ip, 125 mg/kg): 523 ng/mL
- T1/2 ([16]; ip, 125 mg/kg): 72.7 h
- measurable plasma levels through ([16]; po): 336 h
- AUCinf Mean ([16]; po, 600 mg/kg): 58,783 hr * ng/ml
- AUClast Mean ([16]; po, 600 mg/kg): 50,964 hr * ng/ml
- Cmax Mean ([16]; po, 600 mg/kg): 1800 ng/mL
- T1/2 ([16]; po, 600 mg/kg): 90.5 h
- CC50 (Vero): 3.2 µM
- CC50 (HepG2 2.2.15): 3.54 µM
- CC50 (in vitro [17]): 3.2 µM
- CC50 (in vitro [18]): 7.5 µM
- CC50 (in vitro [19]): > 100 µM
- CC50 (in vitro [20]): > 40 µM
- Relative Peak Area/Abundance MLM [21]: 100%
